Source: US20230293539A1, “MLL1-WDR5 PROTEIN-PROTEIN INTERACTION INHIBITOR COMPOUNDS AND USES THEREOF” (HUYABIO International, LLC, priority 2022, published 2023)

Columns and labels:
TCPTP = TCPTP (Homo sapiens, UniProt P17706); test: Selectivity panel (Table 3); format: biochemical
in vitro [1] = conditions: dog, plasma
BRD4-BD1 = biological target: T1, BRD4-BD1 (Homo sapiens, UniProt O60885); test: Selectivity panel (Table 3); format: binding
T1 construct: BRD4-BD1

Mouse PK (oral) = format: in vivo, C57/B16 mice; conditions: for Cmax: plasma; for AUC(0-t) / half-life: C57/B16, plasma
Protocol: Mouse PK: Animals were dosed with a single intravenous bolus or oral gavage administration in naïve C57/B16 mice (Beijing Vital River Laboratory Animal Co., LTD). Blood samples were collected at the respective sampling time points. The quantification of compound concentrations in mouse or rat plasma was quantified using LC-MS/MS method. Plasma concentration versus time data was analyzed by non-compartmental mode approaches using the WinNonlin software program (version 6.3 or above, Pharsight). Pharmacokinetic parameters, including C0 (initial concentration after drug administration), […], Vdss (volume of distribution), Cmax (maximum peak concentration of the drug), Tmax (time required to reach Cmax) T1/2 (time required for drug concentration to decrease by 50% after administration), AUC0-last (area under the concentration-time curve from dosing time t=0 to the time of the last measured concentration), AUC0-inf (total drug exposure across time), MRT0-last (mean residence time from dosing time t=0 to the time of the last measured concentration), MRT0-inf f (mean residence time of total drug exposure), bioavailability (%) (the percentage (or the fraction F) of an administered drug dose that reaches the systemic circulation) for IV and PO groups were calculated. See Table 7 and FIGS. 6A, 6B, 6C and 6D.

ATX = ATX (Homo sapiens, UniProt Q13822); test: Selectivity panel (Table 3); format: biochemical
in vitro [2] = conditions: cynomolgus monkey, plasma
WIP 1 = WIP 1 (Homo sapiens, UniProt O15297); test: Selectivity panel (Table 3); format: biochemical
BRD2-BD1 = biological target: T2, BRD2-BD1 (Homo sapiens, UniProt P25440); test: Selectivity panel (Table 3); format: binding
T2 construct: BRD2-BD1

[3] = Metabolite ID in Liver S9; format: in vitro ADME; conditions: HBI-2375 and metabolites in Human liver S9
[4] = Metabolite ID in Liver S9; format: in vitro ADME; conditions: HBI-2375 and metabolites in Rat liver S9
WDR5 [5] = biological target: T3, WDR5 (Homo sapiens, UniProt P61964); test: WDR5 TR-FRET Assay; format: binding; conditions: 5 nM WDR5 protein, 10 nM peptide, read-out: IC50 (MLL1-WDR5 PPI inhibitory activity)
Protocol: WDR5 TR-FRET Assay Procedure: Stock compounds were transferred to the assay plate by Echo Liquid Handler. Reactions were performed in the assay buffer (1×PBS, 300 mM NaCl, 0.5 mM TCEP, 0.1% CHAPS) containing 5 nM WDR5 protein, 10 nM peptide (Ac-ARTEVHLRKS-[Ahx-Ahx][C]-Alexa Fluor 488-NH2) and 0.25 nM Tb-anti His antibody (Tb-Ab) in 384-well white plate (PerkinElmer) with a final volume of 20 μl. Compounds were incubated with WDR5 protein for 30 min at room temperature. Plates were covered, protected from light and incubated for 60 min. at room temperature after adding the peptide and Tb-Ab. EnVision Multimode Plate Reader (PerkinElmer) was used for the TR-FRET assay with excitation wavelength at 340 nm and emission wavelength at 495 and 520 nm. The ratio of the 520/495 nm wavelengths were used to assess the degree of the FRET signal. IC50 was calculated by fitting the inhibition data using XLfit software to sigmoidal dose-response model.

WDR5 [6] = biological target: T3, WDR5; test: Selectivity panel (Table 3); format: binding
[7] = Compound formulation stability assay; format: physicochemical; conditions: 10 mg/mL in 10% DMSO/10% solutol HS 15/80% water, 2-8° C.
Protocol: Compound formulation stability assay: Test articles were formulated in 10% DMSO/10% solutol HS 15/80% water and stored at 4° C. Formulated compounds were analyzed by a HPLC-UV method for actual concentrations and % remaining on Day 1, 4 and 7 after formulation to determine the stability of the formulated test article. The HPLC system was equipped with Shimadzu LC-20 high-performance liquid chromatograph, SIL-20AC auto sampler, LC-20AB pump and SPD-M20A detector. A Waters XBridge C18 (4.6*100 mm) column was applied for the separation. […]

TEAD3 = TEAD3 (Homo sapiens, UniProt Q99594); test: Selectivity panel (Table 3); format: binding
Liver S9 stability assay = format: in vitro ADME, human
Protocol: Liver S9 stability assay: Test compounds (1 μM) and positive control were incubated with 5 mM GSH and liver S9 (1 mg protein/ml) from multiple species (including human, monkey, dog, rat and mouse) at 37° C. at 0, 10, 30, and 60 minutes in duplicate. After adding the stop solution, 100 μL of supernatant were analyzed by LC-MS/MS. The % remaining of test compound, T1/2 (min), and CLint (μL/min/mg) were calculated and were reported.

KRAS G12V = KRAS G12V (Homo sapiens, UniProt P01116, G12V); test: Selectivity panel (Table 3); format: binding
BRD4-BD2 = biological target: T4, BRD4-BD2 (Homo sapiens, UniProt O60885); test: Selectivity panel (Table 3); format: binding
T4 construct: BRD4-BD2

PD-1/PD-L1 = PD-1/PD-L1 (Homo sapiens, UniProt Q9NZQ7); test: Selectivity panel (Table 3); format: binding
Sequence of PD-1/PD-L1 (Q9NZQ7 19-238 limits assumed): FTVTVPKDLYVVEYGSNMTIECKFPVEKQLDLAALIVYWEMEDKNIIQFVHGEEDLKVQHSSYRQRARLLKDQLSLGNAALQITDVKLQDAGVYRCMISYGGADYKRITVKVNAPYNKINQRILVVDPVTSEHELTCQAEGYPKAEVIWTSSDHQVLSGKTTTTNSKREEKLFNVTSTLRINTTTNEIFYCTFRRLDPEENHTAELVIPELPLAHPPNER

T2 sequence (P25440 74-180 limits assumed): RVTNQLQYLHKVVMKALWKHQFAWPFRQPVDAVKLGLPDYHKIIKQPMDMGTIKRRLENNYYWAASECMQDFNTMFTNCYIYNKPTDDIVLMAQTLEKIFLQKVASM
Sequence of WIP 1 (O15297 whole entry, species assumed): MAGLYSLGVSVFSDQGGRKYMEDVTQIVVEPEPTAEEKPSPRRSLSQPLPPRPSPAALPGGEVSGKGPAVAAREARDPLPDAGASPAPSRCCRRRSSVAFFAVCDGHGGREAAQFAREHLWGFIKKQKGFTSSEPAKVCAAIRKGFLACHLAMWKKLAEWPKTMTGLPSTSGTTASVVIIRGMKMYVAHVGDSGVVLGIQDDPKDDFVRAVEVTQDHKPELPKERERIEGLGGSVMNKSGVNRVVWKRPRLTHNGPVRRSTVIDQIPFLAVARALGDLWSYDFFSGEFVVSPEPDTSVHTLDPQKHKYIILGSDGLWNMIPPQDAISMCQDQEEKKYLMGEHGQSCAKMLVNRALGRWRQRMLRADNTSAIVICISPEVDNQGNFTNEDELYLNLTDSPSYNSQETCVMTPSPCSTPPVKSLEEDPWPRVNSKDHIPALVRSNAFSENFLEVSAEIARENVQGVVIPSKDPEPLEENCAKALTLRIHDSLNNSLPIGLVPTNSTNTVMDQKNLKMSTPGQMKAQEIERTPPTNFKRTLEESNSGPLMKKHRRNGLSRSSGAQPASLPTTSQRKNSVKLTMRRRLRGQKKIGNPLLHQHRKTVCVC
Sequence of TEAD3 (Q99594 whole entry, species assumed): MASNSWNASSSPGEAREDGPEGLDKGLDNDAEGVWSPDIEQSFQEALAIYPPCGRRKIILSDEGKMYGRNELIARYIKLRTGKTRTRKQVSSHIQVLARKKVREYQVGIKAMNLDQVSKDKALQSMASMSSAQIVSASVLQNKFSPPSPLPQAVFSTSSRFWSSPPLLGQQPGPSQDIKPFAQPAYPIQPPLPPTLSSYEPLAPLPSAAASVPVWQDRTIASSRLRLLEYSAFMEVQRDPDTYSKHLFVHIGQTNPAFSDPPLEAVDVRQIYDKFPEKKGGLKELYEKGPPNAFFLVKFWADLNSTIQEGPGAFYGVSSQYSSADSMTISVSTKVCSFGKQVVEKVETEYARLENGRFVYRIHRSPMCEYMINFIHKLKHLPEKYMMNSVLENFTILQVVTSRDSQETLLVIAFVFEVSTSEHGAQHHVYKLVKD
Sequence of KRAS G12V (P01116 1-188 isoform P01116-2 G12V): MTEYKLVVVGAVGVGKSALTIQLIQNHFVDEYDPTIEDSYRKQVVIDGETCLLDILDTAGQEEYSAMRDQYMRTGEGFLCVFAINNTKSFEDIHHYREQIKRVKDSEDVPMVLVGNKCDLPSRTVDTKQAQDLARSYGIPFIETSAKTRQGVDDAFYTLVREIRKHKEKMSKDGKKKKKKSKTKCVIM
Sequence of TCPTP (P17706 whole entry, species assumed): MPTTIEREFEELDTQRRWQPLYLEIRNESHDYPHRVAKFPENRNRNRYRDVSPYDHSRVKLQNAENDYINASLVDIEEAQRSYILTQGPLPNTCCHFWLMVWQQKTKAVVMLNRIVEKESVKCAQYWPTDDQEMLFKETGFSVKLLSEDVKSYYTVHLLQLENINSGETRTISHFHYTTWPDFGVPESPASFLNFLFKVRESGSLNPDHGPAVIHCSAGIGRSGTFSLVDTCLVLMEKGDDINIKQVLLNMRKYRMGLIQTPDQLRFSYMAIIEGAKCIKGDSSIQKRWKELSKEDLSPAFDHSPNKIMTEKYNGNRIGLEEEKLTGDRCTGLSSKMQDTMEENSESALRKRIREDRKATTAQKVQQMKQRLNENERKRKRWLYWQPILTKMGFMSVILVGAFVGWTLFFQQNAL

With `Cc1c(F)c(N)cc(C(=O)Nc2cc(-n3cc(C(=O)N4CCN(C)CC4)nn3)c(F)cc2N2C[C@@H](C)N(C)[C@@H](C)C2)c1Cl` [HYBI-084, 5-amino-2-chloro-4-fluoro-N-(4-fluoro-5-(4-(4-methylpiperazine-1-carbonyl)-1H-1,2,3-triazol-1-yl)-2-((3S,5R)-3,4,5-trimethylpiperazin-1-yl)phenyl)-3-methylbenzamide] the IC50 (TCPTP) was greater than 1 µM, the fraction unbound (in vitro [1]) was less than 0.24 and the IC50 (BRD4-BD1) was greater than 1 µM. It also gave an F (Mouse PK (oral); 10 mpk) of 26.3%, an F (Mouse PK (oral); 30 mpk) of 37.7% and a Cmax (Mouse PK (oral); C57/B16, 10 mg/kg, 10 mpk) of 359 nM. For the same compound, the Cmax (Mouse PK (oral); C57/B16, 30 mg/kg, 30 mpk) was 1280 nM, the AUC(0-t) (Mouse PK (oral); 10 mg/kg, 10 mpk) was 1.31 µM·h and the half-life (Mouse PK (oral); 10 mg/kg, 10 mpk) was 3.1 h. For the same compound, the AUC(0-t) (Mouse PK (oral); 30 mg/kg, 30 mpk) was 5.64 µM·h, the half-life (Mouse PK (oral); 30 mg/kg, 30 mpk) was 3.5 h and the IC50 (ATX) was greater than 1 µM. The fraction unbound (in vitro [2]) was less than 0.24, the IC50 (WIP 1) was greater than 1 µM and the IC50 (BRD2-BD1) was greater than 1 µM. For the same compound, the “Relative Abundance (UV Peak Area % Total)” value [3] was 78.70%, the “Relative Abundance (UV Peak Area % Total)” value [4] was 71.86% and the IC50 (WDR5 [5]) was 0.00448 µM. For the same compound, the IC50 (WDR5 [6]) was 0.000683 µM, the “Accuracy % (Day 0)” value ([7]; Day 0) was 92.8% and the “Formulation Appearance (Day 0)” value ([7]; Day 0) was “clear solution”. The “Remaining % (Day 0)” value ([7]; Day 0) was 100%, the “Accuracy % (Day 1)” value ([7]; Day 1) was 93.4% and the “Formulation Appearance (Day 1)” value ([7]; Day 1) was “clear solution”. The “Remaining % (Day 1)” value ([7]; Day 1) was 101%, the “Accuracy % (Day 4)” value ([7]; Day 4) was 92.9% and the “Formulation Appearance (Day 4)” value ([7]; Day 4) was “clear solution”. For the same compound, the “Remaining % (Day 4)” value ([7]; Day 4) was 100%, the “Accuracy % (Day 7)” value ([7]; Day 7) was 91.5% and the “Formulation Appearance (Day 7)” value ([7]; Day 7) was “clear solution”. For the same compound, the “Remaining % (Day 7)” value ([7]; Day 7) was 98.7%, the IC50 (TEAD3) was greater than 1 µM and the half-life at 1 μM (Liver S9 stability assay; Human liver S9) was greater than 2.42 h. The microsomal CLint at 1 μM (Liver S9 stability assay; Human liver S9) was less than 4.8 µL/min/mg, the “% Remaining after 60 min incubation” value (Liver S9 stability assay; Human liver S9, 1 μM, 5 mM GSH, 37° C.) was 85.1% and the IC50 (KRAS G12V) was greater than 1 µM. It also gave an IC50 (BRD4-BD2) greater than 1 µM and an IC50 (PD-1/PD-L1) greater than 1 µM.
